Assay results as given in patent US10201536B2, “Methods and pharmaceutical compositions for the treatment of bacterial infections in patients suffering from cirrhosis” (INSERM (INSTITUT NATIONAL DE LA SANTE ET DE LA RECHERCHE …, priority 2015, dated 2019).
Residues, ends and D or L forms follow the SMILES beside them. *: point of attachment. MeOSuc = COC(=O)CCC(=O)*; CH2Cl = ClC*

Experiments:
Assay type in all cases: cell-based
elastase [1] = molecular target: T1, elastase (Homo sapiens, UniProt P08246); assay: NOX2 activity (superoxide production) of healthy PMN treated with plasma from cirrhotic patients, with NEI; settings: 12 H, 25% plasma, 100 μM, PMA-induced superoxide
T1 construct: with plasma of healthy volunteers or cirrhotic patients, (25% plasma in 1 ml RPMI containing 5×10^6 PMN); from tissue; host or cells: plasma of cirrhotic patients, incubated with healthy human PMN
T1 sequence (P08246 30-267): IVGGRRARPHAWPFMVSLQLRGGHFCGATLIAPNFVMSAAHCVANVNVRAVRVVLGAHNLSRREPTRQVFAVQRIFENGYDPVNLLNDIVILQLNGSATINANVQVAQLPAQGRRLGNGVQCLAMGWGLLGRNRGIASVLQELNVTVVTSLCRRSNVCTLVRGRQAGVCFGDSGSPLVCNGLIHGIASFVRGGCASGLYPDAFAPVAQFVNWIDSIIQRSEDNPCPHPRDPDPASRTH
Description: (§1) FIG. 9. Plasma from cirrhotic patients reduces gp91phox expression at the surface of healthy PMN and ROS production in NEI-sensitive manner. PMN were pretreated for 12 H at 37° C. with RPMI (control) or with plasma of healthy volunteers or cirrhotic patients, (25% plasma in 1 ml RPMI containing 5×10^6 PMN) either in the absence or presence of the elastase inhibitor NEI (100 μM). PMN were labelled with the anti-gp91phox FITC-coupled antibody. (A) Quantification of the number of positive cells labeled with the anti-gp91phox FITC-coupled antibody (7D5) by Flow cytometry, expressed as percentage of control values. […] (C, D) Time course production of superoxide induced by PMA by healthy PMN which were pretreated for 12 H in the absence (Buffer/RPMI) or presence of plasma from healthy volunteers and cirrhotic patients, either with or without 100 μM NEI. (E) Production of superoxide expressed as percentage of control values (mean±SEM, n=5). […]
(§2) Granulocyte elastase is released during infectious processes and has been proposed to be helpful for the diagnosis of patients with spontaneous bacterial peritonitis (Casafon et al., 1999), a major complication of the alcoholic liver cirrhosis. […] Consistent with this observation, patients' plasmas inhibited NOX2 activity of PMN measured by the cytochrome C assay (FIGS. 9C-E) and chemiluminescence.

neutrophil elastase [2] = molecular target: T2, neutrophil elastase (Homo sapiens, UniProt P08246); assay: fMLP-induced depletion of gp91phox and p22phox in healthy PMN with elastase inhibitor; settings: 100 μM 15 min before fMLP (1 μM) 45 min
T2 construct: a cell-free degranulation supernatant obtained from fMLP (1 μM, 2 min) stimulated PMN; endogenous in cells; host or cells: healthy human PMN stimulated with fMLP, or their cell-free degranulation supernatant
T2 sequence (P08246 30-267): T1 sequence (P08246 30-267)
Description: (§3) FIG. 8. Elastase induces the degradation of gp91phox and p22phox in healthy PMN. (A and B) Western-blot analysis and densitometric quantification of gp91phox and p22phox in healthy PMN treated in the absence or presence of elastase at 0.1 and 0.5 units for 1 hour. (C and D) Western-blot analysis densitometric quantification of gp91phox and […] in healthy PMN treated in the absence or presence of the elastase inhibitor (NEI) at 100 μM for 15 min before stimulation with fMLP (1 μM) for 45 min. (E) Western-blot analysis densitometric quantification of gp91phox in healthy PMN pretreated in the absence or presence of the elastase inhibitor (NEI) at 100 μM for 15 min before incubation for 45 min with a cell-free degranulation supernatant obtained from fMLP (1 μM, 2 min) stimulated PMN. Blots are representative of 4 experiments and densitometric analyses are cumulative and expressed as percentage of the actin level. […] (F) Sensorgrams of the PMN specific binding and dissociation to the anti-gp91phox antibody (7D5) coated to the CM3 sensorchip, analysed with the Biacore X100, as a function of time. […] Data are representative of 3 independent experiments are expressed as resonance unit (RU). (G) Flow cytometry quantification of the Gp91phox expression at the surface of PMN treated or not (Control) with 0.5 unit Elastase at 4° C. […]

neutrophil elastase [3] = molecular target: T2, neutrophil elastase; assay: gp91phox degradation in healthy PMN by cell-free degranulation supernatant with elastase inhibitor; settings: 100 μM 15 min pretreatment, 45 min supernatant
Description: as §3

elastase [4] = molecular target: T1, elastase; assay: gp91phox surface expression of healthy PMN treated with plasma from cirrhotic patients, with NEI; settings: 12 H, 25% plasma, 100 μM
Description: as §1, §2

## COC(=O)CCC(=O)N[C@@H](C)C(=O)N[C@@H](C)C(=O)N1CCC[C@H]1C(=O)N[C@H](C(=O)CCl)C(C)C [NEI, MeOSuc-AAPV-CMK] (MeOSuc-AAPV-CH2Cl)
Elastase [1]
  inhibition of NOX2 activity by patients' plasma: prevented the inhibitory effects
Neutrophil elastase [2]
  fMLP-induced depletion of gp91phox and p22phox: prevented
Neutrophil elastase [3]
  gp91phox degradation by cell-free degranulation supernatant: blocked gp91phox degradation
Elastase [4]
  decrease of gp91phox positive cells and surface expression caused by patients' plasma: prevented
